According to patent US8461202B2, “Composition for treating infectious diseases” (priority 2007, dated 2013):

Key:
flavodoxin of H. pylori = target: T1, flavodoxin of H. pylori (Helicobacter pylori, UniProt O25776); test: Binding to flavodoxin by isothermal titration calorimetry (ITC); conditions: 50 mM EPPS buffer, pH 9 with 7% DMSO, protein around 20 μM, read-out: affinity for flavodoxin (affinity constant)
T1 construct: made in house; host or cells: E. coli BL21
Description: The specific binding of the inhibitors of the present invention to flavodoxin of H. pylori was confirmed by isothermal titration calorimetry (ITC). This technique not only measures the affinity of each compound for the target protein, but also determines the contribution of the enthalpic and entropic components of binding.
The binding experiments were carried out in 50 mM EPPS buffer, pH 9 with 7% DMSO, with the inhibitor in the injection syringe at a concentration of 300-500 μM, and the protein around 20 μM in the measurement cell.

H. pylori flavodoxin = target: T2, H. pylori flavodoxin (Helicobacter pylori, UniProt O25776); test: Inhibition of the sequential electron transfer reaction pyruvate-PFOR-flavodoxin-FqrB-NADP+ (NADPH formation at 340 nm); assay type: biochemical; conditions: 50 μM compound; anaerobic; absorbance at 340 nm; 10 μM Fld
T2 construct: made in house; host or cells: E. coli BL21 (flavodoxin); E. coli JVQ2 (PFOR); E. coli BL21(DE3) (FqrB)
T2 sequence (O25776 1-164): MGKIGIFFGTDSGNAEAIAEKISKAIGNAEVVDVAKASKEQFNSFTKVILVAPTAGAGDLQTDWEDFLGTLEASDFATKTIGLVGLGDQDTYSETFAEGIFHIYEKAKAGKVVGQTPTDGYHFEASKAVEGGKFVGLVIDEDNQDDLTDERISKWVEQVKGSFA
Text: Measurement of the absorbance (A) (AU is the unit of absorbance) at 340 nm against time (t) in seconds (s).
Flavodoxin is an essential protein for Helicobacter pylori survival as it participates in a fundamental reaction for obtaining energy from the oxidative decarboxylation of pyruvate. In this reaction, flavodoxin transfers electrons between the PFOR enzyme and the FqrB enzyme, which releases them to NADP^+.
The sequential reaction of electron transfer between pyruvate, PFOR, flavodoxin, FqrB and NADP^+ (activity assay) was followed spectroscopically by the appearance of the signal at 340 nm with the formation of NADPH. The reaction mixture contained 100 mM potassium phosphate pH 7, 10 mM pyruvate, 0.18 mM CoA, 1 mM MgCl, 0.3 mM NADP^+, 0.09 mg/ml PFOR, 10 μM Fld and 0.15 μM FqrB. The mixture, except CoA, was placed in a cuvette specially designed for anaerobic conditions. Oxygen was removed by means of 5 minute cycles with alternate flows of vacuum and argon. The reaction was started by the addition of 0.18 mM coenzyme A (CoA) that was held in a compartment inside the same cuvette. The reaction completed 15 minutes after adding the CoA reagent.
The inhibition assays were carried out in the same conditions as the activity assays previously described, adding an additional 50 μM of the disclosed compound of the general formula shown in (II) to the reaction cuvette.

O=[N+]([O-])/C=C/c1cc(C(F)(F)F)cc(C(F)(F)F)c1 [(II)]
Kd (flavodoxin of H. pylori): 8 µM
inhibition of product (NADPH) formation in the essential reaction of H. pylori (H. pylori flavodoxin): almost total
